In the supplement of paper PMC13380429:

Legend:
Conditions in all cases: 72 h
[1] = system: Vero E6; test: cell viability relative to DMSO; higher = less toxic
[2] = system: Caco-2; test: as above
[3] = system: U2OS; test: as above
[4] = system: Calu-3; test: as above
[5] = system: HepG2; test: as above
[6] = system: Vero E6; test: relative viability EC50 (midpoint between 100% and the lowest measured viability); higher = less toxic
[7] = system: Caco-2; test: as above
[8] = system: U2OS; test: as above
[9] = system: Calu-3; test: as above
[10] = system: HepG2; test: as above
[11] = system: Vero E6; test: drug sensitivity score (DSS) for viability; higher = more toxic; extreme values may be limits of the assay
[12] = system: Caco-2; test: as above
[13] = system: U2OS; test: as above
[14] = system: Calu-3; test: as above
[15] = system: HepG2; test: as above

Row | SMILES | cell viability ([1]; 1 nM) [%] | cell viability ([1]; 10 nM) [%] | cell viability ([1]; 100 nM) [%] | cell viability ([1]; 1000 nM) [%] | cell viability ([1]; 10000 nM) [%] | cell viability ([2]; 1 nM) [%] | cell viability ([2]; 10 nM) [%] | cell viability ([2]; 100 nM) [%] | cell viability ([2]; 1000 nM) [%] | cell viability ([2]; 10000 nM) [%] | cell viability ([3]; 1 nM) [%] | cell viability ([3]; 10 nM) [%] | cell viability ([3]; 100 nM) [%] | cell viability ([3]; 1000 nM) [%] | cell viability ([3]; 10000 nM) [%] | cell viability ([4]; 1 nM) [%] | cell viability ([4]; 10 nM) [%] | cell viability ([4]; 100 nM) [%] | cell viability ([4]; 1000 nM) [%] | cell viability ([4]; 10000 nM) [%] | cell viability ([5]; 1 nM) [%] | cell viability ([5]; 10 nM) [%] | cell viability ([5]; 100 nM) [%] | cell viability ([5]; 1000 nM) [%] | cell viability ([5]; 10000 nM) [%] | relative viability EC50 [6] [µM] | relative viability EC50 [7] [µM] | relative viability EC50 [8] [µM] | relative viability EC50 [9] [µM] | relative viability EC50 [10] [µM] | drug sensitivity score [11] | drug sensitivity score [12] | drug sensitivity score [13] | drug sensitivity score [14] | drug sensitivity score [15]
1 | COc1cc2c(cc1OC)-c1c(C)c3ccc(OC)c(OC)c3c[n+]1CC2 [dehydrocorydaline] | 95.9 | 100 | 99.6 | 94.8 | 98.5 | 97.6 | 100 | 92.5 | 101 | 88.8 | 99.1 | 101 | 98.6 | 100 | 97.1 | 96.4 | 105 | 91.2 | 102 | 100 | 98.6 | 99.4 | 95.1 | 94.2 | 95.7 | > 10 | > 10 | > 10 | > 10 | > 10 | 0 | 0 | 0 | 0 | 0
2 | Cc1cc2c(C(C)C)c(O)c(O)c(C=O)c2c(O)c1-c1c(C)cc2c(C(C)C)c(O)c(O)c(C=O)c2c1O [gossypol] | 100 | 98.1 | 97.6 | 98.6 | 13.1 | 101 | 104 | 107 | 90.9 | 0.8 | 96.8 | 101 | 98.6 | 95.9 | 11.9 | 100 | 100 | 103 | 103 | 36.9 | 102 | 96.3 | 95.3 | 96.1 | 9.6 | 3.05 | 2.41 | 2.81 | 3.4 | 2.84 | 5 | 7 | 5.5 | 3.2 | 5.6
3 | O=S1(=O)OC(c2ccc(O)cc2)(c2ccc(O)cc2)c2ccccc21 [phenolsulfonphthalein] | 105 | 102 | 100 | 93.8 | 100 | 102 | 108 | 96.1 | 93.7 | 87.9 | 99.5 | 104 | 98 | 103 | 96.4 | 108 | 104 | 83.5 | 110 | 93.2 | 99.3 | 94.5 | 99.3 | 99.6 | 93.5 | > 10 | > 10 | > 10 | > 10 | > 10 | 0 | 0.1 | 0 | 0 | 0
4 | COc1ccc(S(=O)(=O)Nc2cc(Cl)cc(Cl)c2OC)cc1N1CCNCC1 | 102 | 103 | 99.1 | 98.7 | 91.2 | 102 | 97.9 | 97.9 | 92.9 | 94.7 | 109 | 98 | 105 | 96.3 | 100 | 99 | 103 | 99.2 | 106 | 111 | 98.9 | 90.2 | 103 | 98.7 | 102 | > 10 | > 10 | > 10 | > 10 | > 10 | 0 | 0 | 0 | 0 | 0
5 | CC(=O)NS(=O)(=O)c1ccc(NC(=O)c2ccccc2C(=O)O)cc1 [phthalylsulfacetamide] | 102 | 109 | 98.2 | 104 | 102 | 91.3 | 98.4 | 94.2 | 96.4 | 94.3 | 98.8 | 94.6 | 103 | 99.2 | 102 | 100 | 102 | 96.8 | 108 | 101 | 102 | 104 | 91.6 | 105 | 101 | > 10 | > 10 | > 10 | > 10 | > 10 | 0 | 0 | 0 | 0 | 0
